pEC50: −log10 of the molar value.

Assay [1] deals with T1, GnRH receptor (Homo sapiens, UniProt P30968).
T1 sequence (P30968 1-328): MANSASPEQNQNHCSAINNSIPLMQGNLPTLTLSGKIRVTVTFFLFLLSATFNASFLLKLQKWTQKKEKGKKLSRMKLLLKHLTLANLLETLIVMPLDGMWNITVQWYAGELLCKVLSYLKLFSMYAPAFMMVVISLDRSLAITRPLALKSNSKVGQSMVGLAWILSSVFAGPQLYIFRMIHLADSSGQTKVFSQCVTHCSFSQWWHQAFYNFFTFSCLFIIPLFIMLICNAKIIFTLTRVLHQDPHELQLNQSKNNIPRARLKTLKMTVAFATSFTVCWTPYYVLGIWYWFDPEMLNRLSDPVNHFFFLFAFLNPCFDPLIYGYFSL
The assay can be described thus: Receptor binding assay with 125I-triptorelin on transfected LTK cells. As to conditions: competition with 125I-triptorelin, whole LTK cells, 60 minutes at 37° C. On the procedure:
^125I-Triptorelin [^125I-(D)-Trp6-GnRH] is ordered from the Biotrend Company (Cologne, Germany). The specific activity in each case is 2.13 Ci/mmol. All other chemicals are ordered from commercial sources at the highest available purity.
Transfixed LTK′ cells (ATCC No. CCL-11.3) are cultivated in DMEM medium (Invitrogen Life Technologies, Germany) with penicillin (100 I.U./ml), streptomycin (0.1 mg/ml) and glutamine (0.01 mol/l) and 10% fetal calf serum (FCS; Invitrogen Life Technologies, Germany) on plastic tissue culture plates (Nunc, Germany, 245×245×20 nun).
80% confluent cell culture plates are washed twice with 50 ml of phosphate-buffered salt solution (PBS) and dissolved below with 0.01 M EDTA solution. The cells are pelletized by centrifuging at 200×g for 5 minutes in a laboratory centrifuge (Kendro, Germany). The cell pellet is resuspended in 3 ml of binding medium (DMEM; 10 mmol of Hepes; 0.5% BSA; 0.1% NaN3; 1 g/l of bacitracin (freshly added, stock 100×); 0.1 g/l of SBTI (freshly added, stock 1000×), and the cell count is determined by means of trypan blue staining in a Neubauer counting chamber. The cell suspension is set with binding medium to a concentration of 5×10^5 Z/0.05 ml.
Binding tests for competition curves are performed as duplicates. The test substances are used as 10 mmol DMSO solutions. They are diluted with binding medium to 4× the final concentration used. 25 μl of the substance dilution is mixed with 25 μl of tracer solution (^125I-triptorelin). The concentration of tracer is set to about 50,000 cpm (measured in Cobra II, γ-counter, PE Liefe Science, Germany) in the final reaction volume of 100 μl.
200 μl of a silicone/paraffin oil mixture (84%:16%) is introduced into 650 μl pointed-bottom tubes (Roth, Germany). 50 μl of the cell suspension is pipetted thereto and subsequently 50 μl of the test substance/tracer mixture. The tubes are sealed and incubated for 60 minutes at 37° C. in an incubator that rotates via the top. After incubation, the samples are centrifuged in a centrifuge (Kendro, Germany) at 900 rpm and subsequently flash-frozen in liquid N2. The tip with the cell pellet is cut off and inserted into the prepared counting tube (Roth, Germany). The remainder of the pointed-bottom tube with the remaining supernatant is also inserted into a counting tube. The measurement is made in a γ-counter for 1 minute/sample.
The evaluation of the samples is carried out after calculating the specific bond in comparison to untreated cells, after the unspecific bond (excess unlabeled ligand, 1 mmol) is removed by means of GraphPad Prism (GraphPad Software Inc., USA).

For assay [2], the target named is T1, GnRH receptor. Kind of assay: Functional reporter gene assay (luciferase) in LTK cells carrying GnRH receptors, triptorelin stimulation. The assay is classed as cell-based. The arrangement: expressed in transfected cells; host or cells: LTK cells (ATCC No. CCL-1.3), stably transfected, with CRE / CMV minimal promoter luciferase reporter. As to conditions: inhibition of triptorelin/Rolipram-stimulated luciferase reporter. On the procedure: Functional Reporter Gene Assay
For performing functional tests, stable, transfixed LTK cells carrying GnRH receptors (ATCC No. CCL-1.3) with a heterologous expression of cAMP responsible elements as well as a CMV minimal promoter-driven luciferase reporter gene are used.
The cells are cultivated in DMEM medium (Invitrogen Life Technologies, Germany) with penicillin (100 I.U./ml), streptomycin (0.1 mg/ml) and glutamine (0.01 mol/l) and 10% fetal calf serum (FCS; Invitrogen Life Technologies, Germany) on plastic tissue culture plates (Nunc, Germany, 245×245×20 mm).
80% confluent cell culture plates are washed twice with 50 ml of phosphate-buffered salt solution (PBS) and subsequently dissolved with trypsin EDTA solution (Invitrogen Life Technologies, Germany). The cells are pelletized by centrifuging at 200×g for 5 minutes in a laboratory centrifuge (Kendro, Germany). The cell pellet is resuspended in 3 ml of assay medium (Invitrogen Life Technologies, Germany) with penicillin (100 I.U./ml), streptomycin (0.1 mg/ml) and glutamine (0.01 mol/l) and 10% fetal calf serum (FCS; Invitrogen Life Technologies, Germany), and the cell count is determined by means of trypan blue staining in a Neubauer counting chamber. The cell suspension is set with assay medium to a concentration of 1×10^4 Z/100 μl. The cells are suspended on white 96-well microtiter plates (Costar, Germany) and incubated for 18 hours in an incubator.
To perform tests, test substances are diluted as 10 mmol DMSO solutions in assay medium to 6× the final concentration used. 25 μl of the test substance is added to 100 μl cells and incubated for 60 minutes at 37° C., 5% CO2. Then, the addition of triptorelin (D-Trp6-GnRH)/Rolipram solution (6 mmol/6 mmol) and a renewed incubation are carried out for 6 hours at 37° C., 5% CO2.
After incubation, the addition of 50 μl of lysis/detection buffer (LucLite, PE Life Science) and the measurement in a Lumistar luminometer (BMG Labtechnologies GmBH, Germany) are carried out.
The evaluation of the samples is carried out after calculating the inhibition in comparison to untreated stimulated cells, after removal of non-stimulated controls, by means of GraphPad Prism (GraphPad Software, Inc., USA) or alternately by means of OMMM (Accelrys, Germany) Software.
(Reporter assays use an easily measured gene product as a stand-in for the process of interest.)

On to `CCC(C)[C@H](NC(=O)[C@@]1(NC(=O)[C@H](CC2CCCCC2)NC(=O)OCc2ccccc2)CCc2[nH]c3c(Cl)cc(Cl)cc3c2C1)C(N)=O` (stereo partly drawn) [Compound 300, Phenylmethyl [(1S,2S)-1-[[[(3R)-3-[[[(1S)-1(aminocarbonyl)-2-methylbutyl]amino]carbonyl]-6,8-dichloro-2,3,4,9-tetrahydro-1H-carbazol-3-yl]amino]car-bonyl]-2-cyclohexylmethyl]-carbamate], for which the pEC50 (in general, the negative decadic logarithm of the EC50, by convention in mol/L) at GnRH receptor [1] was 7.64; on GnRH receptor [2], 7.77. As for `CC[C@H](C)[C@H](NC(=O)[C@@]1(NC(=O)[C@@H](NC(=O)OCc2ccccc2)[C@@H](C)CC)CCc2[nH]c3c(Cl)cc(Cl)cc3c2C1)C(N)=O` [Compound 295, Phenylmethyl [(1S,2S)-1-[[[(3R)-3-[[[(1S,2S)-1-(aminocarbonyl)-2-methylbutyl]amino]carbonyl]-6,8-dichloro-2,3,4,9-tetrahydro-1H-carbazol-3-yl]amino]car-bonyl]-2-methylbutyl]carbamate], the figures for the pEC50 at GnRH receptor [1] and on GnRH receptor [2] were 7.74 and 8.15, respectively. In the case of `CC[C@H](C)[C@H](NC(=O)OCc1ccccc1)C(=O)N[C@]1(C(=O)N[C@@H](CCc2ccccc2)C(N)=O)CCc2[nH]c3c(Cl)cc(Cl)cc3c2C1` [Compound 299, Phenylmethyl [(1S,2S)-1-[[[(3R)-3-[[[(1S)-1-(aminocarbonyl)-3-phenylpropyl]amino]carbonyl]-6,8-dichloro-2,3,4,9-tetrahydro-1H-carbazol-3-yl]amino]car-bonyl]-2-methylbutyl]carbamate], the pEC50 on GnRH receptor [1] was 5.88; on GnRH receptor [2], 5.82. `CC[C@H](C)[C@H](NC(=O)[C@@]1(NC(=O)[C@@H](NC(=O)OCc2ccccc2)[C@@H](C)CC)CCc2[nH]c3c(Cl)cc(Cl)cc3c2C1)C(=O)O` [Compound 301, Phenylmethyl [(1S,2S)-1-[[[(3R)-3-[[[(1S,2S)-1-(carboxy)-2-methylbutyl]amino]carbonyl]-6,8-dichloro-2,3,4,9-tetrahydro-1H-carbazol-3-yl]amino]car-bonyl]-2-methylbutyl]carbamate]: the values for the pEC50 on GnRH receptor [1] and at GnRH receptor [2] were 6.27 and 6.75, respectively. In the case of `CC[C@H](C)[C@H](NC(=O)OCc1ccccc1)C(=O)N[C@]1(C(=O)N[C@@H](CC2CCCCC2)C(N)=O)CCc2[nH]c3c(Cl)cc(Cl)cc3c2C1` [Compound 297, Phenylmethyl [(1S,2S)-1-[[[(3R)-3-[[[(1S)-1-(aminocarbonyl)-2-cyclohexylethyl]amino]carbonyl]-6,8-dichloro-2,3,4,9-tetrahydro-1H-carbazol-3-yl]amino]car-bonyl]-2-methylbutyl]carbamate], the results for the pEC50 on GnRH receptor [1] and on GnRH receptor [2] were 6.32 and 6.55, respectively. As for `CC[C@H](C)[C@H](NC(=O)[C@@]1(NC(=O)[C@@H](NC(=O)OCc2ccccc2)[C@@H](C)CC)CCc2[nH]c3c(OC)cccc3c2C1)C(N)=O` [Compound 294, Phenylmethyl [(1S,2S)-1-[[[(3R)-3-[[[(1S,2S)-1-(aminocarbonyl)-2-methylbutyl]amino]carbonyl]-8-methoxy-2,3,4,9-tetrahydro-1H-carbazol-3-yl]amino]car-bonyl]-2-methylbutyl]carbamate], the figures for the negative logarithm of the EC50 (pEC50) on GnRH receptor [1] and at GnRH receptor [2] were 7.44 and 7.05, respectively. As for `CC[C@H](C)[C@H](NC(=O)OCc1ccccc1)C(=O)N[C@]1(C(=O)N[C@H](C(N)=O)C(C)C)CCc2[nH]c3c(F)cc(F)cc3c2C1` [Compound 293, Phenylmethyl [(1S,2S)-1-[[[(3R)-3-[[[(1S)-1-(aminocarbonyl)-2-methylpropyl]amino]carbonyl]-6,8-difluoro-2,3,4,9-tetrahydro-1H-carbazol-3-yl]amino]car-bonyl]-2-methylbutyl]carbamate], the pEC50 on GnRH receptor [1] was 6.48; on GnRH receptor [2] it was 6.12.

As for `CC[C@H](C)[C@H](NC(=O)[C@@]1(NC(=O)[C@H](Cc2ccc(O)cc2)NC(=O)OCc2ccccc2)CCc2[nH]c3c(Cl)cc(Cl)cc3c2C1)C(N)=O` [Compound 302, Phenylmethyl [(1S)-1-[[[(3R)-3-[[[(1S,2S)-1-(aminocarbonyl)-2-methylbutyl]amino]carbonyl]-6,8-dichloro-2,3,4,9-tetrahydro-1H-carbazol-3-yl]amino]car-bonyl]-2-(4-hydroxyphenyl)-ethyl]carbamate], the pEC50 was 6.32 at GnRH receptor [1] and 6.49 on GnRH receptor [2].

Turning to `CC[C@H](C)[C@H](NC(=O)[C@@]1(NC(=O)[C@H](CCc2ccccc2)NC(=O)OCc2ccccc2)CCc2[nH]c3c(Cl)cc(Cl)cc3c2C1)C(N)=O` [Compound 304, Phenylmethyl [(1S)-1-[[[(3R)-3-[[[(1S,2S)-1-(aminocarbonyl)-2-methylbutyl]amino]carbonyl]-6,8-dichloro-2,3,4,9-tetrahydro-1H-carbazol-3-yl]amino]car-bonyl]-3-phenylpropyl]carbamate], the figures for the pEC50 at GnRH receptor [1] and on GnRH receptor [2] were 7.42 and 7.74, respectively.

Consider `CC[C@H](C)[C@H](NC(=O)OCc1ccccc1)C(=O)N[C@]1(C(=O)N[C@@H](CC(C)C)C(N)=O)CCc2[nH]c3c(Cl)cc(Cl)cc3c2C1` [Compound 296, Phenylmethyl [(1S,2S)-1-[[[(3R)-3-[[[(1S)-1-(aminocarbonyl)-3-methylbutyl]amino]carbonyl]-6,8-dichloro-2,3,4,9-tetrahydro-1H-carbazol-3-yl]amino]car-bonyl]-2-methylbutyl]carbamate], for which the figures for the pEC50 on GnRH receptor [1] and at GnRH receptor [2] were 7.66 and 7.85, respectively. At GnRH receptor [1], `CC[C@H](C)[C@H](NC(=O)OCc1ccccc1)C(=O)N[C@]1(C(=O)N[C@H](C(N)=O)C(C)(C)C)CCc2[nH]c3c(Cl)cc(Cl)cc3c2C1` [Compound 298, Phenylmethyl [(1S,2S)-1-[[[(3R)-3-[[[(1S)-1-(aminocarbonyl)-2,2-dimethylpropyl]amino]carbonyl]-6,8-dichloro-2,3,4,9-tetrahydro-1H-carbazol-3-yl]amino]car-bonyl]-2-methylbutyl]carbamate] showed a negative-log EC50 (pEC50) of 6.54.

For the origin of these results see patent US7122570B2, “Tetrahydrocarbazol derivatives as ligands for G-protein-coupled receptors (GPCR)” (Zentaris AG, priority 2001, dated 2006).
